Results taken from patent US9895363B2, “Methods for modulating function of proliferating cell nuclear antigen (PCNA) and treating cancer with PCNA-targeting compounds” (University of Cincinnati, priority 2010, dated 2018).

Tests used:
[1] = tested on: PC-3 cells; experiment: Cell cycle distribution by flow cytometry, PC-3; assay type: cell-based, Human
Description: The effects of PCNA inhibitors on cell cycle progression were investigated via flow cytometry analysis. Specifically, PC-3 cells were plated into 60 mm plates at 2×10^5 cells/plate and were allowed to attach overnight.
The cells were rinsed with HBSS, detached by trypsinization, suspended in MEM-5% FBS, pelleted by centrifugation, resuspended in PI staining solution (PBS containing 50 μg/mL PI, 100 μg/mL RNase A, and 0.05% Triton X-100), and incubated for 45 min at 37° C. After washing with PBS, the cells were resuspended in PBS for flow cytometry analysis in an Epics-XL-MCL system (Beckman Coulter, Fullerton, Calif.). Thirty thousand cells at each time point were collected to determine their DNA content and to obtain flow cytometric fluorescence histograms (X-axis fluorescence, Y-axis cell number). The three fractions (G0/G1, G2/M and S) were quantified by using the Synchronization Wizard of ModFit LT Flow Cytometry Cell-cycle Analysis Softward (Verity Software House, Topsham, Me.).
Flow cytometry analysis was also performed on cells in which endogenous PCNA was knocked down with transfection of PCNA-specific siRNA. Specifically, PC-3 cells were plated into a 60-mm plate at 2×10^5/plate in antibiotics-free medium and transfected with 200 pmol PCNA specific siRNA or control scrambled siRNA for 24 H using Lifectamine 2000. The cells were then cultured in SFM for 24 H, followed by incubation in fresh SFM or stimulation with medium supplemented with 5% FBS, and sampled at different times for analyses. The PC-3 cells were also subjected to western blot analysis. Specifically, cells were washed and scraped into a lysis buffer (1% Triton X-100, 20 mM Tris-HCl, pH 8.0, 137 mM NaCl, 10% glycerol, 2 mM EDTA, 1 mM PMSF, and a protease inhibitor cocktail) and analyzed by Western blotting analysis as described by Zhang et al. in Tumor-infiltrating Macrophages are Involved in Suppressing Growth and Metastasis of Human Prostate Cancer Cells by INF-beta Gene Therapy in Nude Mice; Clin. Cancer Res. 2002; 8:29:2942-51. Samples were collected at 0 H (48 H after transfection), 24 H, 48 H, and 72 H, respectively.
Fluorescence-activated cell sorting (FACS) analysis was performed on both PC-3 cells and LNCaP cells using PCNA-I1. Specifically, cells were treated with 1 or 10 μM PCNA-I1 and sampled for the flow cytometry analysis at 24 H, 48 H, and 72 H. Expression of DNA damage and apoptosis-related proteins in PC-3 cells and LNCaP cells was also determined. Cisplatin, a well-known drug that induces DNA damage and apoptosis, was included in the experiment. LNCaP cells were treated for 6 H, 12 H, or 18 H with 10 μM PCNA-I1, 10 μM cisplatin, or both.

[2] = tested on: 22Rv1 prostate cancer cells; experiment: Growth inhibition by MTT staining, 22Rv1; assay type: cell-based; conditions: 22Rv1, 96 h, Human tumor cells, treated four days
Description: Growth inhibitory effects of PCNA-I1 and PCNA-I2 were assessed in human cancer cell lines, mouse cancer cell lines, immortalized mouse cell lines, and human primary cell lines. Specifically, growth inhibitory effects of PCNA-I1 and PCNA-I2 were assessed using MTT staining in the following cells lines: 1) human cancer cell lines including LNCaP (androgen receptor […]), 22Rv1, DU-145, LAPC-4, and PC-3 (androgen receptor […]) prostate cancer cells; MCF-7 and T47D breast cancer cells; A375 and MDA-MB435 melanoma cells; 2) mouse cancer cell lines including TRAMP-C2RE3 prostate cancer cells, B16 and K1735 melanoma cells, UV2237 fibrosarcoma cells, and CT-26 colon cancer cells; 3) immortalized mouse lung cell lines and mouse endothelial cell lines; and 4) primary human cell lines including umbilical endothelial cells (HUVEC, PromoCell, Heidelberg, Germany), primary bone marrow mesenchymal stem cells (HuMSC, PromoCell), primary human mammary epithelial cells (HuBrEC, Lonza, Walkersville, Md.), primary human prostate epithelial cells (HuPrEC, Lonza), and primary mouse spleen lymphocytes (isolated in this laboratory), and primary mouse bone marrow stromal cells (isolated in this laboratory). […]
IC50 values were derived from growth inhibition curves. […] Inhibition of cell growth was calculated using the formula: growth inhibition (%)=(1−A570 of treated/A570 of control)×100. […]

[3] = 1 μM, 5% FBS after serum starvation, FIGS. 4 and 5

## Cc1ccsc1C(=O)N/N=C/c1ccc2ccccc2c1O [PCNA-I1]
[1]; 1 μM, 5% FBS after serum starvation, 24-72 H, FIGS. 4 and 5
  Cells in G1 phase: partially attenuated the serum-stimulated G1 decrease at 24 H but led to significant G1 reductions at 48 H and 72 H
[1]; [3]
  Cells in S phase: significantly increased at 24 H
  G2/M fraction of cells: increased steadily at 48 H and 72 H
[1]; 1 μM, FIG. 15
  Cell cycle effect, PC-3, 1 μM: cell growth arrest at S and G2/M phases
[1]; 10 μM, FIG. 15
  Cell cycle effect, PC-3, 10 μM: more significant G1 arrest
[1]; 1 or 10 μM, 24, 48, 72 H
  Apoptosis, PC-3: Apoptosis was not observed
[2]
  IC50: 180 nM
